Values quoted from earlier work as cited in patent publication US9072693B2 (priority 2005, dated 2015).

Columns and labels:
psoriatic plaques = conditions: topical (Lu et al. 1996)
women with PMS [1] = tested on: women with PMS
women with PMS [2] = conditions: higher doses once or twice during the luteal phase (Miner 2002)

In the case of `C=C1/C(=C\C=C2/CCC[C@]3(C)[C@@H]([C@H](C)CCCC(C)(C)O)CC[C@@H]23)C[C@@H](O)C[C@@H]1O` [Calcitriol], the “effect in psoriatic plaques” value (psoriatic plaques) is given as “decrease keratinocyte proliferation, normalize keratinocyte differentiation and decrease immune activation in plaques”.

In the case of `O=C([O-])[O-].[Ca+2]` [calcium, calcium carbonate], the “reduction of overall PMS symptoms” value (women with PMS [1]; a number of studies, all 4 major categories of PMS) is given as 50% and the “overall reduction in total symptom scores compared to placebo” value (women with PMS [1]; elemental calcium 1200 mg per day as calcium carbonate, within 3 months of therapy, premenopausal women 18-45 years) is given as 48%.

For `C=C1CC[C@H](O)C/C1=C/C=C1\CCC[C@]2(C)[C@@H]([C@H](C)CCCC(C)C)CC[C@@H]12` [cholecalciferol], the safety (10,000 IU daily for 5 months (Heaney)) is given as “safe” and the “daily dose at which toxicity occurs” value (oral ingestion, daily (Vieth R)) is given as 40,000 IU.

In the case of `CNCCC(Oc1ccc(C(F)(F)F)cc1)c1ccccc1` (stereo not drawn) [fluoxetine], the “effect on PMS symptomatology” value (women with PMS [2]) is given as “effective in reducing symptomatology”.
